Entries after “also recorded” stand apart in the source; their conditions may differ.
Legend:
Arabidopsis thaliana [1] = experiment: SOA1 phenotypic analysis of herbicide-treated Arabidopsis (MIC, Tmic, leaf traits); format: in vivo; conditions: for tMic (Dev.): coded score of time to full range of symptoms at MIC; for leafCurling (Dev.) / leafTwisting (Dev.) / leafWidth (Dev.) / matureLeafAnthocyanins (Dev.) / matureLeafChlorosis (Dev.) / matureLeafNecrosis (Dev.) / newLeafAnthocyanins (Dev.) / newLeafChlorosis (Dev.) / newLeafNecrosis (Dev.) / pointedLeaves (Dev.): numeric value standardized to mock treated; for characteristic morphological symptoms: SOA1, in words
Arabidopsis thaliana [2] = experiment: MOA1 phenotypic profiling of sprayed Arabidopsis (symptom scores, cluster analysis); format: in vivo; conditions: MOA1, in words
Arabidopsis thaliana [3] = experiment: MOA1 gene expression profiling (22,000 gene arrays) of sprayed Arabidopsis; conditions: for number of gene expression perturbations compared to the other treatments: 1 hr; for No. of Lethal Genes Altered: regulated genes at 1 hr compared with internal list of essential genes
Arabidopsis thaliana [4] = experiment: MOA1 biochemical (metabolite) profiling by LC-MS and GC-MS of sprayed Arabidopsis; conditions: for stress-related (commonly regulated) metabolites: MOA1, 20 min and 1 hour after spraying
[5] = tested on: Saccharomyces cerevisiae wild type strain BY4743; experiment: AF1 yeast metabolite analysis by GC-MS and LC-MS after antifungal drug treatment; format: cell-based
Magnaporthe grisea = format: cell-based
Arabidopsis = conditions: nitrate addition to N-starved plants; cited from earlier work
[6] = MOA1, early time points / after one hour

## O=C(O)COc1ccc(Cl)cc1Cl [2,4-D]
Arabidopsis thaliana [1]; SOA1
  tMic (Dev.): 2
  leafCurling (Dev.): 1
  leafTwisting (Dev.): 2
  leafWidth (Dev.): −1
  matureLeafAnthocyanins (Dev.): 1
  matureLeafChlorosis (Dev.): 2
  matureLeafNecrosis (Dev.): 0
  newLeafAnthocyanins (Dev.): 0
  newLeafChlorosis (Dev.): 1
  newLeafNecrosis (Dev.): 0
  pointedLeaves (Dev.): 0
Arabidopsis thaliana [1]; SOA1, three-week-old plants sprayed with herbicide, classes pictured in FIG. 12
  Symtom Class: 5

## O=C(O)c1cc(Oc2ccc(C(F)(F)F)cc2Cl)ccc1[N+](=O)[O-] [Acifluorfen]
Arabidopsis thaliana [1]
  characteristic morphological symptoms: Necrotic leaf flecks

## Nc1nc[nH]n1 [Amitrole]
Arabidopsis thaliana [1]
  characteristic morphological symptoms: leaf bleaching and leaf enlargement
Arabidopsis thaliana [2]
  observed phenotype: chlorosis and not true bleaching

## COC(=O)NS(=O)(=O)c1ccc(N)cc1 [Asulam]
Arabidopsis thaliana [3]
  number of gene expression perturbations compared to the other treatments: fewest gene expression perturbations
  No. of Lethal Genes Altered: 5

## CCNc1nc(Cl)nc(NC(C)C)n1 [Atrazine]
Arabidopsis thaliana [1]
  characteristic morphological symptoms: rapid and widespread leaf necrosis

## CC(C)N1C(=O)c2ccccc2NS1(=O)=O [Bentazon]
Arabidopsis thaliana [1]
  characteristic morphological symptoms: rapid and widespread leaf necrosis

## COC(=O)c1cc(Oc2ccc(Cl)cc2Cl)ccc1[N+](=O)[O-] [Bifenox]
Arabidopsis thaliana [1]
  characteristic morphological symptoms: Necrotic leaf flecks

## CCSC(=O)N(CC(C)C)CC(C)C [Butylate]
Arabidopsis thaliana [2]
  observed phenotype: neither showed a strong herbicidal phenotype
Arabidopsis thaliana [4]
  stress-related (commonly regulated) metabolites: neither butylate nor chlorpropham treatment resulted in many changes in these commonly regulated metabolites

## CC(C)OC(=O)Nc1cccc(Cl)c1 [Chloropropham]
Arabidopsis thaliana [2]
  observed phenotype: neither showed a strong herbicidal phenotype
Arabidopsis thaliana [4]
  stress-related (commonly regulated) metabolites: neither butylate nor chlorpropham treatment resulted in many changes in these commonly regulated metabolites

## COc1nc(C)nc(NC(=O)NS(=O)(=O)c2ccccc2Cl)n1 [Chlorsulfuron]
Arabidopsis thaliana [1]
  characteristic morphological symptoms: anthocyanin accumulation in the older leaves accompanied by chlorosis of the newly emerging leaves
Arabidopsis thaliana [3]
  No. of Lethal Genes Altered: 8

## c1cc[n+]2c(c1)-c1cccc[n+]1CC2 [Diquat]
Arabidopsis thaliana [1]
  characteristic morphological symptoms: rapid and widespread leaf necrosis
Arabidopsis thaliana [1]; SOA1
  tMic (Dev.): 2

## CN(C)C(=O)Nc1ccc(Cl)c(Cl)c1 [Diuron]
Arabidopsis thaliana [1]
  characteristic morphological symptoms: rapid and widespread leaf necrosis
Arabidopsis thaliana [1]; SOA1
  tMic (Dev.): 1

## OC(Cn1cncn1)(Cn1cncn1)c1ccc(F)cc1F [Fiuconazole]
[5]; 5hydroxyLtryptophan, pLC
  Fold Change: 0
[5]; adenosine, pLC
  Fold Change: 0

## OC(Cn1cncn1)(Cn1cncn1)c1ccc(F)cc1F [Fluconazole]
[5]; 4-aminobenzoic acid, pLC
  Fold Change: 0
[5]; 4-methylcatechol, nLC
  Fold Change: 0
[5]; 4-methylcatechol, pLC
  Fold Change: 0
[5]; 5hydroxyLtryptophan, nLC
  Fold Change: 0
[5]; 6-benzylaminopurine, nLC
  Fold Change: 0
[5]; 6benzylaminopurine, pLC
  Fold Change: 0
[5]; DL-aminoadipic acid, pLC
  Fold Change: 0.1155
[5]; DLaminoadipic acid, nLC
  Fold Change: 0.443
[5]; abscisic acid, nLC
  Fold Change: 0
[5]; abscisic acid, pLC
  Fold Change: 0
[5]; adenine, nLC
  Fold Change: 0
[5]; adenosine, nLC
  Fold Change: 0
[5]; allantoic acid, pLC
  Fold Change: 0
[5]; anthranilic acid, nLC
  Fold Change: 0
[5]; anthranilic acid, pLC
  Fold Change: 0
[5]; arginine, nLC
  Fold Change: 0.6484
[5]; arginine, pLC
  Fold Change: 0.1179
[5]; argininosuccinate, nLC
  Fold Change: 0
[5]; argininosuccinate, pLC
  Fold Change: 0
[5]; asparagine, GC
  Fold Change: 0.3999
[5]; asparagine, nLC
  Fold Change: 0.3545
[5]; asparagine, pLC
  Fold Change: 0.3192
[5]; aspartic acid, GC
  Fold Change: 0.4337
[5]; aspartic acid, pLC
  Fold Change: 0.214
[5]; aspartic, nLC
  Fold Change: 0.4993
[5]; benzoic acid, nLC
  Fold Change: 0
[5]; biotin, nLC
  Fold Change: 0.3455
[5]; biotin, pLC
  Fold Change: 0
[5]; caffeic acid, nLC
  Fold Change: −0.4711
[5]; caffeine, pLC
  Fold Change: 0
[5]; campesterol, GC
  Fold Change: 0
[5]; catechol, nLC
  Fold Change: 0
[5]; cinnamic acid, nLC
  Fold Change: 0
[5]; citric acid TME, pLC
  Fold Change: 0
[5]; citricanoic/itaconi, nLC
  Fold Change: 0
[5]; citrulline, nLC
  Fold Change: 0
[5]; citrulline, pLC
  Fold Change: 0.08252
[5]; coumaric acid, nLC
  Fold Change: 0
[5]; cytidine, nLC
  Fold Change: −0.7969
[5]; cytidine, pLC
  Fold Change: 0
[5]; cytosine, nLC
  Fold Change: 0
[5]; cytosine, pLC
  Fold Change: 0
[5]; decanoic acid, nLC
  Fold Change: 0.1846
[5]; desmosterol, GC
  Fold Change: 0
[5]; diaminopimelic acid, nLC
  Fold Change: 0
[5]; diaminopimelic acid, pLC
  Fold Change: 0
[5]; dihydrofolic acid, nLC
  Fold Change: 0
[5]; dihydrofolic acid, pLC
  Fold Change: 0
[5]; dipicolinic acid, pLC
  Fold Change: 0
[5]; disaccaride1, GC
  Fold Change: 0.3883
[5]; disaccaride2, GC
  Fold Change: 0.1517
[5]; disaccaride3, GC
  Fold Change: 0.5803
[5]; ergosterol, GC
  Fold Change: 0.948
[5]; estrone, nLC
  Fold Change: 0
[5]; farnesol, nLC
  Fold Change: 0
[5]; folic acid, nLC
  Fold Change: 0
[5]; folic acid, pLC
  Fold Change: 0
[5]; fucosterol, GC
  Fold Change: 6.665
[5]; fumaric/3m2oxobutan, nLC
  Fold Change: 0.6009
[5]; gallic acid, nLC
  Fold Change: 0.5071
[5]; gibberellic, nLC
  Fold Change: 0
[5]; glucosamine6PO4, nLC
  Fold Change: −0.9951
[5]; glucosamine6PO4, pLC
  Fold Change: 0
[5]; glucosamine, pLC
  Fold Change: 0
[5]; glutamate, pLC
  Fold Change: −0.06179
[5]; glutamic/acetylseri, nLC
  Fold Change: 0.3842
[5]; glutamine, GC
  Fold Change: 0.5242
[5]; glutamine/lysine, nLC
  Fold Change: 0.3309
[5]; glutamine/lysine, pLC
  Fold Change: 0.2242
[5]; glutathione, pLC
  Fold Change: −0.05832
[5]; glycanopyrose, GC
  Fold Change: 1.202
[5]; glycerol, GC
  Fold Change: 0.2187
[5]; glycine, GC
  Fold Change: −0.1037
[5]; guanine, nLC
  Fold Change: 0
[5]; guanosine, nLC
  Fold Change: −0.993
[5]; guanosine, pLC
  Fold Change: −0.9981
[5]; hexadecanoic acid, GC
  Fold Change: 0.1343
[5]; histidine, nLC
  Fold Change: 0
[5]; histidine, pLC
  Fold Change: 0
[5]; homogentisic/uric, nLC
  Fold Change: 0
[5]; hydrocortisone, nLC
  Fold Change: 0
[5]; hydrocortisone, pLC
  Fold Change: 0
[5]; hypoxanthine, nLC
  Fold Change: 0.7757
[5]; hypoxanthine, pLC
  Fold Change: 0.1298
[5]; indole3pyruvic acid, nLC
  Fold Change: 0
[5]; inostol/glucos/sorb, nLC
  Fold Change: −0.4744
[5]; iso citric acid, GC
  Fold Change: 0.3923
[5]; isocitric/citric/qu, nLC
  Fold Change: 1.457
[5]; isoleucine, GC
  Fold Change: 0.391
[5]; itaconic acid dimes, pLC
  Fold Change: 0
[5]; jasmonic acid, nLC
  Fold Change: 0
[5]; kinetin, nLC
  Fold Change: 0
[5]; kinetin, pLC
  Fold Change: 0
[5]; lactic acid, nLC
  Fold Change: −0.0439
[5]; lanosterol, GC
  Fold Change: 8.462
[5]; lauric acid, nLC
  Fold Change: 0.3906
[5]; leucine, GC
  Fold Change: 0.3387

## O=C(O)CNCP(=O)(O)O [Glyphosate]
Arabidopsis thaliana [1]
  characteristic morphological symptoms: anthocyanin accumulation in the older leaves accompanied by chlorosis of the newly emerging leaves
Arabidopsis thaliana [1]; SOA1
  tMic (Dev.): 2
Arabidopsis thaliana [4]; [6]
  tyrosine level relative to the control: decreased
Magnaporthe grisea
  growth of M. grisea with ammonium or glutamine provided: Little growth defect
Magnaporthe grisea; 1.0 mg/ml
  growth inhibition and remediation: remediated by inclusion of aromatic amino acids

## CC(C)C1(C)N=C(c2ncccc2C(=O)O)NC1=O (stereo not shown) [Imazapyr]
Arabidopsis thaliana [1]
  characteristic morphological symptoms: anthocyanin accumulation in the older leaves accompanied by chlorosis of the newly emerging leaves
Arabidopsis thaliana [4]
  stress-related (commonly regulated) metabolites: Only a few, if any

## CCc1cnc(C2=NC(C)(C(C)C)C(=O)N2)c(C(=O)O)c1 (stereo not shown) [Imazethapyr]
Arabidopsis thaliana [1]
  characteristic morphological symptoms: anthocyanin accumulation in the older leaves accompanied by chlorosis of the newly emerging leaves

## CS(=O)(=O)c1cc(C(F)(F)F)ccc1C(=O)c1cnoc1C1CC1 [Isoxaflutole]
Arabidopsis thaliana [3]
  No. of Lethal Genes Altered: 15
Arabidopsis thaliana [4]; MOA1, early time points
  Alpha-tocopherol levels relative to the control: not significantly changed
Arabidopsis thaliana [4]; [6]
  phenylalanine level relative to the control: up-regulated; also recorded: began to accumulate
  tyrosine level relative to the control: up-regulated; also recorded: began to accumulate

## CSc1nnc(C(C)(C)C)c(=O)n1N [Metribuzin]
Arabidopsis thaliana [1]
  characteristic morphological symptoms: rapid and widespread leaf necrosis

## O=C(O)c1ccccc1C(=O)Nc1cccc2ccccc12 [Naptalam]
Arabidopsis thaliana [3]
  number of gene expression perturbations compared to the other treatments: fewest gene expression perturbations
  No. of Lethal Genes Altered: 3

## O=[N+]([O-])O [Nitrate, nitrate]
Arabidopsis
  Nitrate Regulation of Glutamate synthetase: ↑
  Nitrate Regulation of Glutamine synthetase (2): ↑
  Nitrate Regulation of MADs Box (2): ↓
  Nitrate Regulation of MYB transcription factor: ↑
  Nitrate Regulation of Malate Dehydrogenase: ↑
  Nitrate Regulation of Nitrate transporter: ↑
  Nitrate Regulation of Phosphate transporter: ↑
  Nitrate Regulation of Transaldolase: ↑
  Nitrate Regulation of Transketolase: ↑

## CNc1cnn(-c2cccc(C(F)(F)F)c2)c(=O)c1Cl [Norflurazon]
Arabidopsis thaliana [4]
  stress-related (commonly regulated) metabolites: Only a few, if any

## C[n+]1ccc(-c2cc[n+](C)cc2)cc1 [Paraquat]
Arabidopsis thaliana [1]
  characteristic morphological symptoms: rapid and widespread leaf necrosis
Arabidopsis thaliana [1]; SOA1
  tMic (Dev.): 2
  leafCurling (Dev.): 2
  leafTwisting (Dev.): 0
  leafWidth (Dev.): −1
  matureLeafAnthocyanins (Dev.): 0
  matureLeafChlorosis (Dev.): 1
  matureLeafNecrosis (Dev.): 4
  newLeafAnthocyanins (Dev.): 0
  newLeafChlorosis (Dev.): 1
  newLeafNecrosis (Dev.): 4
  pointedLeaves (Dev.): 1

Reference: US20040024543A1, “Methods and systems for analyzing complex biological systems” (priority 2001, published 2004)
